Values of other authors in patent US20140243422A1, “METHODS OF TREATING BEHAVIORAL AND PSYCHIATRIC DISORDERS” (ELAN PHARMACEUTICALS, INC., priority 2011, published 2014).

System: brain myo-inositol levels
Details: bipolar patients, therapeutic doses, within a few days; cited from earlier work

In the case of `O=C([O-])[O-].[Li+].[Li+]` [Lithium, lithium carbonate], the “reduction of brain myo-inositol levels” value is listed as ~30%.
